Assay results: patent US5624923A, “Tricyclic diazepine vasopressin antagonists and oxytocin antagonists” (priority 1995, dated 1997)

Assays:
Vasopressin V2 = Vasopressin V2 Antagonist Activity in Conscious Hydrated Rats; format: in vivo, rat; conditions: 10 mg/kg orally, AVP 0.4 μg/kg i.p.
Summary of the method: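 Four-hour urine output, osmolality and electrolytes (Na+, K+, Cl−) recorded in water-loaded rats (30 mL/kg deionized water orally) given AVP i.p. at 0.4 μg/kg. Test compounds were given orally at 0.1–100 mg/kg 1 h before AVP; 2–4 rats per compound.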

Vasopressin V1 = Vasopressin V1 Antagonist Activity in Conscious Rats (vasopressin vasopressor response); format: in vivo, rat; parameters: Average Change: unit not given here; conditions: for % Inhibition / Average Change: SHR
Summary of the method: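 Conscious rats are restrained supine, and under local 2% procaine a PE 10/20 cannula is passed through the ventral caudal tail artery into the lower abdominal aorta. The caudal vein is cannulated for intravenous dosing. Blood pressure is recorded with a Statham P23Db transducer, and vasopressin injections are repeated after compound dosing. Percent antagonism is calculated against the pre-drug vasopressor response taken as 100%.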

oxytocin receptors = biological target: T1, oxytocin receptors (Rattus norvegicus, UniProt P70536); assay: Oxytocin Receptor Binding; conditions: for IC50: 1.0 nM [3H]oxytocin; for inhibition at 10 µM: [3H]oxytocin
T1 construct: The uteri are dissected out, cleaned of fat and connective tissues; from tissue; host or cells: uterus of DES-treated female Sprague-Dawley rats
T1 sequence (P70536 1-388): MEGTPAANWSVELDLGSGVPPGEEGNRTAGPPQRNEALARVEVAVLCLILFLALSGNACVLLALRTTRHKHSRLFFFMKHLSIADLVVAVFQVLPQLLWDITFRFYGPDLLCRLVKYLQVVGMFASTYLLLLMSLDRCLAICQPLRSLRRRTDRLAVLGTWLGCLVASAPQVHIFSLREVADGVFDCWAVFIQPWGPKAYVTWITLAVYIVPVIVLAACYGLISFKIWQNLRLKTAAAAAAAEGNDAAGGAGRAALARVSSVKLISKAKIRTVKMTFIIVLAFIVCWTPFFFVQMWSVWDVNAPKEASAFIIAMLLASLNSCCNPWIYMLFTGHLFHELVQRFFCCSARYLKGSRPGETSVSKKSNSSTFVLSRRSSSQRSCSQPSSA
Summary of the method: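 IC50 is the concentration displacing 50% of 1.0 nM [3H]OT, incubated 60 min at 22 °C in pH 7.4 Tris/MgCl2 buffer plus protease inhibitors, then filtered. Receptor source: uterine membranes from rats given 0.3 mg/kg DES i.m. 18 h earlier. 1.0 uM cold OT defined non-specific binding.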

[1] = 10 mg/kg i.v., VAS 0.01 i.u./kg, 30 min
[2] = 10 mg/kg i.v., VAS 0.01 i.u./kg, 60 min
[3] = 10 mg/kg i.v., VAS 0.01 i.u./kg, 90 min
[4] = 10 mg/kg i.v., VAS 0.01 i.u./kg, 120 min
[5] = 10 mg/kg i.v., VAS 0.01 i.u./kg, 180 min
[6] = 10 mg/kg i.v., VAS 0.01 i.u./kg, 240 min
[7] = 10 mg/kg i.v., VAS 0.01 i.u./kg, 300 min
[8] = 10 mg/kg i.v., VAS 0.02 i.u./kg, 30 min
[9] = 10 mg/kg i.v., VAS 0.02 i.u./kg, 60 min
[10] = 10 mg/kg i.v., VAS 0.02 i.u./kg, 90 min
[11] = 10 mg/kg i.v., VAS 0.02 i.u./kg, 120 min
[12] = 10 mg/kg i.v., VAS 0.02 i.u./kg, 180 min
[13] = 10 mg/kg i.v., VAS 0.02 i.u./kg, 240 min
[14] = 10 mg/kg i.v., VAS 0.02 i.u./kg, 300 min

O=C(Nc1ccc(C(=O)N2Cc3ccc(Cn4ccnc4)n3Cc3ccccc32)cc1)c1ccc(Cl)cc1Cl [Example 582, 2,4-Dichloro-N-[4-[[3-(1H-imidazol-1-ylmethyl)-5H-pyrrolo[2,1-c][1,4]benzodiazepin-10(11H)-yl]carbonyl]phenyl]benzamide]
Osmolality (Vasopressin V2): 604 mOsm/kg
Urine Volume (Vasopressin V2): 9.5 ml/4 hrs
Max. % Inhibition (Vasopressin V1; 10 mg/kg i.v.): 75%
Time (of max. % inhibition) (Vasopressin V1; 10 mg/kg i.v.): 170 min
IC50 (oxytocin receptors): 0.675 µM
inhibition at 10 µM (oxytocin receptors): 96%

O=C(Nc1ccc(C(=O)N2Cc3cccn3Cc3ccccc32)cc1)c1cc(Cl)cc(Cl)c1Cl [Example 599, N-[4-(5H-Pyrrolo[2,1-c][1,4]benzodiazepin-10(11H)-ylcarbonyl)phenyl]-2,3,5-trichlorobenzamide]
Osmolality (Vasopressin V2): 407 mOsm/kg
Urine Volume (Vasopressin V2): 18 ml/4 hrs
Max. % Inhibition (Vasopressin V1; 30 mg/kg i.v.): 86%
Time (of max. % inhibition) (Vasopressin V1; 30 mg/kg i.v.): 90 min
IC50 (oxytocin receptors): 0.35 µM
inhibition at 10 µM (oxytocin receptors): 92%

O=C(Nc1ccc(C(=O)N2Cc3cccn3Cc3sccc32)cc1)c1ccc(Cl)cc1Cl [Example 274, N-(4-(5H-pyrrolo[1,2-a]thieno-[3,2-e][1,4]diazepin-4(10H)-ylcarbonyl)phenyl]-2,4-dichloro-benzamide]
Osmolality (Vasopressin V2): 1177 mOsm/kg
Urine Volume (Vasopressin V2): 3 ml/4 hrs
Max. % Inhibition (Vasopressin V1; 10 mg/kg i.v.): 59%
Time (of max. % inhibition) (Vasopressin V1; 10 mg/kg i.v.): 300 min
IC50 (oxytocin receptors): 1 µM
inhibition at 10 µM (oxytocin receptors): 95%

COC(=O)c1ccc2n1Cc1ccccc1N(C(=O)c1ccc(NC(=O)c3ccc(Cl)cc3Cl)cc1)C2 [Example 593]
Osmolality (Vasopressin V2): 577 mOsm/kg
Urine Volume (Vasopressin V2): 11.8 ml/4 hrs
Max. % Inhibition (Vasopressin V1; 30 mg/kg i.v.): 67%
Time (of max. % inhibition) (Vasopressin V1; 30 mg/kg i.v.): 60 min
IC50 (oxytocin receptors): 1.1 µM
inhibition at 10 µM (oxytocin receptors): 82%

COc1cc(C(=O)N2Cc3cccn3Cc3ccccc32)ccc1NC(=O)c1cccc(F)c1C [Example 479, N-[4-(5H-pyrrolo[2,1-c][1,4]benzodiazepin-10(11H)-ylcarbonyl)-2-methoxy-phenyl]-3-fluoro-2-methylbenzamide]
Osmolality (Vasopressin V2): 1042 mOsm/kg
Urine Volume (Vasopressin V2): 6 ml/4 hrs
Max. % Inhibition (Vasopressin V1; 10 mg/kg i.v.): 83%
Time (of max. % inhibition) (Vasopressin V1; 10 mg/kg i.v.): 60 min
Max. % Inhibition (Vasopressin V1; 30 mg/kg p.o.): 69%
Time (of max. % inhibition) (Vasopressin V1; 30 mg/kg p.o.): 90 min
IC50 (oxytocin receptors): 0.15 µM
inhibition at 10 µM (oxytocin receptors): 76%

O=C(Nc1ccc(C(=O)N2Cc3cccn3Cc3ccccc32)cc1)C(O)c1ccccc1 (racemic) [Example 588, (±) α-Hydroxy-N-[4-(5H-pyrrolo[2,1c][1,4]benzodiazepin-10(11H)-ylcarbonyl)phenyl]benzeneacetamide]
Osmolality (Vasopressin V2): 687 mOsm/kg
Urine Volume (Vasopressin V2): 9.5 ml/4 hrs
Max. % Inhibition (Vasopressin V1; 10 mg/kg i.v.): 65%
Time (of max. % inhibition) (Vasopressin V1; 10 mg/kg i.v.): 90 min
Max. % Inhibition (Vasopressin V1; 30 mg/kg p.o.): 80%
Time (of max. % inhibition) (Vasopressin V1; 30 mg/kg p.o.): 120 min
IC50 (oxytocin receptors): 2 µM
inhibition at 10 µM (oxytocin receptors): 90%

O=C(Nc1ccc(C(=O)N2Cc3ccc(C(=O)C(F)(F)F)n3Cc3ccccc32)cc1)c1ccccc1C(F)(F)F [Example 594]
Osmolality (Vasopressin V2): 1172 ± 182 mOsm/kg
Urine Volume (Vasopressin V2): 4.9 ± 1.2 ml/4 hrs
Max. % Inhibition (Vasopressin V1; 30 mg/kg i.v.): 36%
Time (of max. % inhibition) (Vasopressin V1; 30 mg/kg i.v.): 180 min
inhibition at 10 µM (oxytocin receptors): 19%

Cc1ccccc1C(=O)Nc1c(C)cc(C(=O)N2Cc3cccn3Cc3ccccc32)cc1C [Example 472]
Osmolality (Vasopressin V2): 1453 mOsm/kg
Urine Volume (Vasopressin V2): 4.3 ml/4 hrs
Max. % Inhibition (Vasopressin V1; 30 mg/kg i.v.): 36%
Time (of max. % inhibition) (Vasopressin V1; 30 mg/kg i.v.): 90 min
inhibition at 10 µM (oxytocin receptors): 0%

Cc1ccccc1CC(=O)Nc1ccc(C(=O)N2Cc3cccn3Cc3ccccc32)cc1 [Example 93, N-[4(5H-Pyrrolo[2,1-c][1,4]benzodiazepin-10(11H)-ylcarbonyl)phenyl]-2-methylbenzeneacetamide]
% Inhibition (Vasopressin V1; [1]): 96%
Average Change (Vasopressin V1; [1]): 2
% Inhibition (Vasopressin V1; [2]): 94%
Average Change (Vasopressin V1; [2]): 3
% Inhibition (Vasopressin V1; [3]): 90%
Average Change (Vasopressin V1; [3]): 5
% Inhibition (Vasopressin V1; [4]): 88%
Average Change (Vasopressin V1; [4]): 6
% Inhibition (Vasopressin V1; [5]): 73%
Average Change (Vasopressin V1; [5]): 13.5
% Inhibition (Vasopressin V1; [6]): 74%
Average Change (Vasopressin V1; [6]): 13
% Inhibition (Vasopressin V1; [7]): 76%
Average Change (Vasopressin V1; [7]): 12
% Inhibition (Vasopressin V1; [8]): 94%
Average Change (Vasopressin V1; [8]): 4.5
% Inhibition (Vasopressin V1; [9]): 92%
Average Change (Vasopressin V1; [9]): 5.5
% Inhibition (Vasopressin V1; [10]): 90%
Average Change (Vasopressin V1; [10]): 7
% Inhibition (Vasopressin V1; [11]): 90%
Average Change (Vasopressin V1; [11]): 7
% Inhibition (Vasopressin V1; [12]): 78%
Average Change (Vasopressin V1; [12]): 15.5
% Inhibition (Vasopressin V1; [13]): 76%
Average Change (Vasopressin V1; [13]): 17
% Inhibition (Vasopressin V1; [14]): 74%
Average Change (Vasopressin V1; [14]): 18.5
IC50 (oxytocin receptors): 0.06 µM
inhibition at 10 µM (oxytocin receptors): 87%

CSc1ccccc1C(=O)Nc1ccc(C(=O)N2Cc3cccn3Cc3ccccc32)cc1 [Example 85, N-[4-(5H-Pyrrolo[2,1-c][1,4]benzodiazepin-10(11H)-ylcarbonyl)phenyl]-2-(methylthio)benzamide]
% Inhibition (Vasopressin V1; [1]): 83%
Average Change (Vasopressin V1; [1]): 4.5
% Inhibition (Vasopressin V1; [2]): 74%
Average Change (Vasopressin V1; [2]): 7
% Inhibition (Vasopressin V1; [3]): 64%
Average Change (Vasopressin V1; [3]): 9.5
% Inhibition (Vasopressin V1; [4]): 66%
Average Change (Vasopressin V1; [4]): 9
% Inhibition (Vasopressin V1; [5]): 42%
Average Change (Vasopressin V1; [5]): 15.5
% Inhibition (Vasopressin V1; [6]): 55%
Average Change (Vasopressin V1; [6]): 12
% Inhibition (Vasopressin V1; [7]): 5%
Average Change (Vasopressin V1; [7]): 12
% Inhibition (Vasopressin V1; [8]): 75%
Average Change (Vasopressin V1; [8]): 9
% Inhibition (Vasopressin V1; [9]): 73%
Average Change (Vasopressin V1; [9]): 9.5
% Inhibition (Vasopressin V1; [10]): 79%
Average Change (Vasopressin V1; [10]): 7.5
% Inhibition (Vasopressin V1; [11]): 82%
Average Change (Vasopressin V1; [11]): 6.5
% Inhibition (Vasopressin V1; [12]): 45%
Average Change (Vasopressin V1; [12]): 19.5
% Inhibition (Vasopressin V1; [13]): 49%
Average Change (Vasopressin V1; [13]): 18
% Inhibition (Vasopressin V1; [14]): 49%
Average Change (Vasopressin V1; [14]): 18
IC50 (oxytocin receptors): 0.46 µM
inhibition at 10 µM (oxytocin receptors): 98%
